Molecules are shown by their SMILES. Counter-ions that a name gives are not always drawn.

Experiment [1] concerns the target T1, HCV polymerase (NS5B) type 1a (Hepatitis C virus genotype 1a, UniProt P26664).
T1 construct: made in house; host or cells: Escherichia coli (by the 'similar method' of the 1b enzyme)
Description: Assay of enzyme (HCV polymerase) inhibitory activity, type 1a enzyme. The experiment is classed as biochemical, HCV type 1a (cloned from the blood of patients). The settings on record: HCV polymerase inhibitory activity (IC50), 1a, type 1a enzyme 1.5 μg/ml, 25° C., 60 min. The method, boiled down: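 NS5B Δ47 C-term His6 (type 1a, 1.5 μg/ml); substrate RNA 5 μg/ml; ATP/GTP/CTP 50 μM, UTP 2 μM + [5,6-3H]UTP; Tris pH 7.5, MgCl2 5 mM; 25° C, 60 min. TCA/pyrophosphate stop, GF/B filter, scintillation. IC50 vs no-compound control.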

For experiment [2], the target named is T2, HCV polymerase (NS5B) type 1b (Hepatitis C virus genotype 1b, UniProt P26663).
T2 construct: a region encoding NS5B (J Virol 1991 March, 65(3), 1105-13, 544 amino acids after deletion of 47 amino acids on the C-terminal); 6xHis (C); made in house; host or cells: Escherichia coli
Briefly: Assay of enzyme (HCV polymerase) inhibitory activity, type 1b enzyme. Conditions: HCV polymerase inhibitory activity (IC50), 1b, type 1b enzyme 0.5 μg/ml, 25° C., 60 min. The experiment is classed as biochemical, HCV BK strain (type 1b). The method, boiled down:
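Rxn: NS5B 1b (BK, ΔC47, His6) 0.5 μg/ml; substrate RNA 5 μg/ml; ATP/GTP/CTP 50 μM, UTP 2 μM + [5,6-3H]UTP; 20 mM Tris pH 7.5, 5 mM MgCl2, 50 mM NaCl, 1 mM EDTA/DTT. 25 °C, 60 min. Stop with TCA/pyrophosphate, filter, scintillation count; IC50 vs. untreated.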

The IC50 is the concentration at which inhibition is half-maximal. For the molecule `CC(C)c1ccc(CNC(=O)[C@H]2CN(c3ncc(C(=O)O)c(O)n3)CCN2S(=O)(=O)c2ccc(C(F)(F)F)cc2)cc1` [Example 357, 4-hydroxy-2-[(R)-3-(4-isopropyl-benzylcarbamoyl)-4-(4-trifluoromethyl-benzenesulfonyl)-piperazin-1-yl]-pyrimidine-5-carboxylic acid], the half-maximal inhibitory concentration (IC50) is more than 1000 nM in experiment [1] and 100 to 1000 nM in experiment [2].
`Cc1nc(N2CCN(S(=O)(=O)c3ccc(OC(F)(F)F)cc3)[C@@H](C(=O)NCc3ccc(C(C)C)cc3)C2)sc1C(=O)NCC(=O)OC(C)(C)C` [Example 358, ({2-[(R)-3-(4-isopropyl-benzylcarbamoyl)-4-(4-trifluoromethoxy-benzenesulfonyl)-piperazin-1-yl]-4-methyl-thiazole-5-carbonyl}-amino)-acetic acid tert-butyl ester]: the half-inhibitory concentration (IC50) in experiment [1] and in experiment [2] was less than 100 nM each time.
On to `Cc1nc(N2CCN(S(=O)(=O)c3ccc(OC(F)(F)F)cc3)[C@@H](C(=O)NCc3ccc(C(C)C)cc3)C2)sc1C(=O)NCCC(=O)OC(C)(C)C` [Example 359, 3-({2-[(R)-3-(4-isopropyl-benzylcarbamoyl)-4-(4-trifluoromethoxy-benzenesulfonyl)-piperazin-1-yl]-4-methyl-thiazole-5-carbonyl}-amino)-propionic acid tert-butyl ester], for which the concentration for half-maximal inhibition (IC50) in experiment [1] and in experiment [2] was less than 100 nM in each case.
Consider `Cc1nc(N2CCN(S(=O)(=O)c3ccc(OC(F)(F)F)cc3)[C@@H](C(=O)NCc3ccc(C(C)C)cc3)C2)sc1C(=O)NCC(=O)O` [Example 360, ({2-[(R)-3-(4-isopropyl-benzylcarbamoyl)-4-(4-trifluoromethoxy-benzenesulfonyl)-piperazin-1-yl]-4-methyl-thiazole-5-carbonyl}-amino)-acetic acid], for which the IC50 in experiment [1] and in experiment [2] was less than 100 nM in each case.
Consider `Cc1nc(N2CCN(S(=O)(=O)c3ccc(OC(F)(F)F)cc3)[C@@H](C(=O)NCc3ccc(C(C)C)cc3)C2)sc1C(=O)NCCC(=O)O` [Example 361, 3-({2-[(R)-3-(4-isopropyl-benzylcarbamoyl)-4-(4-trifluoromethoxy-benzenesulfonyl)-piperazin-1-yl]-4-methyl-thiazole-5-carbonyl}-amino)-propionic acid], for which the half-inhibitory concentration (IC50) in experiment [1] and in experiment [2] was less than 100 nM each time.
`CC(C)c1ccc(CNC(=O)[C@H]2CN(c3nc([N+](=O)[O-])n[nH]3)CCN2S(=O)(=O)c2ccc(C(F)(F)F)cc2)cc1` [Example 362, (R)-4-(5-nitro-2H-[1,2,4]triazol-3-yl)-1-(4-trifluoromethyl-benzenesulfonyl)-piperazine-2-carboxylic acid 4-isopropyl-benzylamide]: the half-inhibitory concentration (IC50) in experiment [1] was more than 1000 nM; in experiment [2], 100 to 1000 nM.
As for `CCCc1ccc(CNC(=O)[C@H]2CN(c3nc(CC)c(C(=O)O)s3)CCN2S(=O)(=O)c2ccc(OC(F)(F)F)cc2)c(C)c1` [Example 363, 4-ethyl-2-[(R)-3-(2-methyl-4-propyl-benzylcarbamoyl)-4-(4-trifluoromethoxy-benzenesulfonyl)-piperazin-1-yl]-thiazole-5-carboxylic acid], the IC50 in experiment [1] and in experiment [2] was less than 100 nM throughout.
`Cc1cc(C(C)C)ccc1CNC(=O)[C@H]1CN(c2nc(C)c(C(=O)O)s2)CCN1S(=O)(=O)c1ccc(OC(F)(F)F)cc1` [Example 364, 2-[(R)-3-(4-isopropyl-2-methyl-benzylcarbamoyl)-4-(4-trifluoromethoxy-benzenesulfonyl)-piperazin-1-yl]-4-methyl-thiazole-5-carboxylic acid]: the half-inhibitory concentration (IC50) in experiment [1] and in experiment [2] was less than 100 nM each time.
Regarding `Cc1nc(N2CCN(S(=O)(=O)c3ccc(OC(F)(F)F)cc3)[C@@H](C(=O)NCc3ccc(OC(F)(F)F)cc3)C2)sc1C(=O)O` [Example 365, 4-methyl-2-[(R)-4-(4-trifluoromethoxy-benzenesulfonyl)-3-(4-trifluoromethoxy-benzylcarbamoyl)-piperazin-1-yl]-thiazole-5-carboxylic acid], the IC50 in experiment [1] and in experiment [2] was less than 100 nM throughout.
As to `CCc1ccc(CNC(=O)[C@H]2CN(c3nc(C)c(C(=O)O)s3)CCN2S(=O)(=O)c2ccc(OC(F)(F)F)cc2)cc1` [Example 366, 2-[(R)-3-(4-ethyl-benzylcarbamoyl)-4-(4-trifluoromethoxy-benzenesulfonyl)-piperazin-1-yl]-4-methyl-thiazole-5-carboxylic acid], the half-maximal inhibitory concentration (IC50) in experiment [1] and in experiment [2] was less than 100 nM throughout.
With `Cc1nc(N2CCN(S(=O)(=O)c3ccc(OC(F)(F)F)cc3)[C@@H](C(=O)NCc3ccc(C(C)(C)C)cc3)C2)sc1C(=O)O` [Example 367, 2-[(R)-3-(4-tert-butyl-benzylcarbamoyl)-4-(4-trifluoromethoxy-benzenesulfonyl)-piperazin-1-yl]-4-methyl-thiazole-5-carboxylic acid], the half-maximal inhibitory concentration (IC50) in experiment [1] and in experiment [2] was less than 100 nM each time.
As for `CC(C)c1ccc(CNC(=O)[C@H]2CN(c3nc(N)n[nH]3)CCN2S(=O)(=O)c2ccc(C(F)(F)F)cc2)cc1` [Example 368, (R)-4-(5-amino-2H-[1,2,4]triazol-3-yl)-1-(4-trifluoromethyl-benzenesulfonyl)-piperazine-2-carboxylic acid 4-isopropyl-benzylamide], the values for the half-inhibitory concentration (IC50) in experiment [1] and in experiment [2] were more than 1000 nM and 100 to 1000 nM, respectively.
The corresponding values for `Cc1nc(N2CCN(S(=O)(=O)c3ccc(OC(F)(F)F)cc3)[C@@H](C(=O)NCc3ccc(C(C)C)cc3)C2)sc1C(=O)N[C@H](C)C(=O)O` [Example 369, (R)-2-({2-[(R)-3-(4-isopropyl-benzylcarbamoyl)-4-(4-trifluoromethoxy-benzenesulfonyl)-piperazin-1-yl]-4-methyl-thiazole-5-carbonyl}-amino)-propionic acid] are less than 100 nM and less than 100 nM.
Taken in the same sequence, the figures for `Cc1nc(N2CCN(S(=O)(=O)c3ccc(OC(F)(F)F)cc3)[C@@H](C(=O)NCc3ccc(C(C)C)cc3)C2)sc1C(=O)N[C@@H](C)C(=O)O` [Example 370, (S)-2-({2-[(R)-3-(4-isopropyl-benzylcarbamoyl)-4-(4-trifluoromethoxy-benzenesulfonyl)-piperazin-1-yl]-4-methyl-thiazole-5-carbonyl}-amino)-propionic acid] were 100 to 1000 nM and less than 100 nM.
Taken in the same sequence, the figures for `Cc1nc(N2CCN(S(=O)(=O)c3ccc(C(F)(F)F)cc3)[C@@H](C(=O)NCc3ccc(C(C)C)cc3)C2)oc1C(=O)O` [Example 371, 2-[(R)-3-(4-isopropyl-benzylcarbamoyl)-4-(4-trifluoromethyl-benzenesulfonyl)-piperazin-1-yl]-4-methyl-oxazole-5-carboxylic acid trifluoroacetate] were 100 to 1000 nM and 100 to 1000 nM.
Take `CC(C)c1ccc(CNC(=O)[C@H]2CN(c3nc(Br)n[nH]3)CCN2S(=O)(=O)c2ccc(C(F)(F)F)cc2)cc1` [Example 372, (R)-4-(5-bromo-2H-[1,2,4]triazol-3-yl)-1-(4-trifluoromethyl-benzenesulfonyl)-piperazine-2-carboxylic acid 4-isopropyl-benzylamide]: the half-inhibitory concentration (IC50) in experiment [1] is 100 to 1000 nM; in experiment [2] it was less than 100 nM.
Taken in the same sequence, the figures for `CC(C)c1ccc(CNC(=O)[C@H]2CN(c3ncn[nH]3)CCN2S(=O)(=O)c2ccc(C(F)(F)F)cc2)cc1` [Example 373, (R)-4-(2H-[1,2,4]triazol-3-yl)-1-(4-trifluoromethyl-benzenesulfonyl)-piperazine-2-carboxylic acid 4-isopropyl-benzylamide] were more than 1000 nM and 100 to 1000 nM.
The corresponding values for `CCCc1ccc(CNC(=O)[C@H]2CN(c3cnc(C(=O)O)cn3)CCN2S(=O)(=O)c2ccc(OC(F)(F)F)cc2)cc1` [Example 374, (R)-3-(4-propyl-benzylcarbamoyl)-4-(4-trifluoromethoxy-benzenesulfonyl)-3,4,5,6-tetrahydro-2H-[1,2′]bipyrazinyl-5′-carboxylic acid] are less than 100 nM and less than 100 nM.
Taken in the same sequence, the figures for `CCCc1ncc(S(=O)(=O)N2CCN(C(C)=O)C[C@@H]2C(=O)NCc2ccc(C(C)C)cc2)s1` [Example 375, (R)-4-acetyl-1-(2-propyl-thiazole-5-sulfonyl)-piperazine-2-carboxylic acid 4-isopropyl-benzylamide] were less than 100 nM and less than 100 nM.
Consider `CC(C)c1ccc(CNC(=O)[C@H]2CN(c3ccc(C(=O)O)nn3)CCN2S(=O)(=O)c2ccc(C(F)(F)F)cc2)cc1` [Example 376, 6-[(R)-3-(4-isopropyl-benzylcarbamoyl)-4-(4-trifluoromethyl-benzenesulfonyl)-piperazin-1-yl]-pyridazine-3-carboxylic acid], for which the half-maximal inhibitory concentration (IC50) in experiment [1] and in experiment [2] was less than 100 nM in each case.
On to `CC(C)c1ccc(CNC(=O)[C@H]2CN(c3cnc(C(N)=O)cn3)CCN2S(=O)(=O)c2ccc(C(F)(F)F)cc2)cc1` [Example 377, (R)-4-(4-trifluoromethyl-benzenesulfonyl)-3,4,5,6-tetrahydro-2H-[1,2′]bipyrazinyl-3,5′-dicarboxylic acid 5′-amide 3-(4-isopropyl-benzylamide)], for which the IC50 in experiment [1] and in experiment [2] was less than 100 nM in each case.

Values taken from US8017612B2, “Piperazine compound and use thereof as a HCV polymerase inhibitor” (priority 2006, dated 2011).
